# Experimental data reported in patent publication US11691976B2, “Coelenterazine analogues” (PROMEGA CORPORATION, priority 2018, dated 2023).
# Target: NANOLUC® Luciferase (Oplophorus gracilirostris, UniProt Q9GV45, A31E/A60N/A81I/F95D/I117V/K70R/L54V/L99Q/M102K/N193R/P142E/Q151K/Q38R/Q45L/V71I/Y165I)
# Experiment: Luminescence assay: substrate titration with purified NANOLUC Luciferase (RLU, signal half-life, Km)
# Type: biochemical
# Details: 100 μM substrate; initial light output three minutes after substrate addition; relative to furimazine set to 1.0
# Procedure: Each compound to be screened was dissolved in DMSO (5 mM) and then further diluted to 100 μM in NANO-GEO® Luciferase Assay Buffer. A two-fold dilution series was prepared for each substrate by serially diluting 500 μl of the substrate solution with 500 μl of NANO-GLO® Luciferase Assay Buffer. Each diluted substrate titration was then combined in equal volumes with purified NANOLUC® Luciferase diluted into CO2 independent media+10% FBS. Initial light output for each substrate was measured in a GLOMAX®-Multi+ luminometer three minutes after substrate addition and then at five minute intervals as a means to determine signal half-life. Signal half-life was calculated using GraphPad Prism One Phase Decay regression and Km and Vmax were calculated using GraphPad Prism using Michaelis-Menten regression.
# The synthesized coelenterazine analogues (compounds of formula (I) and (II)) were evaluated for their suitability as luciferase substrates. NANOLUC® luciferase was employed for the screening because it is a small (19 kDa), stable, and particularly bright enzyme. […] RLU, half-life, and Km values are for furimazine is set to 1.0. […]
# NANOLUC® Luciferase, sequence (Q9GV45 28-196 with tags or gaps with the stated changes limits assumed): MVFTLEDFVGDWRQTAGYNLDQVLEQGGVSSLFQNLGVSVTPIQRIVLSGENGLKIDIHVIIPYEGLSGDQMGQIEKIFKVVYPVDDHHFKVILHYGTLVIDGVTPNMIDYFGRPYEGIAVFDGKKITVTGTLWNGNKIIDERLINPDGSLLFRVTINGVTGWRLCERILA
row,Compound,RLU (@100 μM)
1,"Nc1cc(-c2cn3c(=O)c(Cc4ccco4)nc-3c(Cc3ccccc3)[nH]2)ccc1F [JRW-1536, 6-(3-amino-4-fluorophenyl)-8-benzyl-2-(furan-2-ylmethyl)imidazo[1,2-a]pyrazin-3(7H)-one]",0.08
2,"Cc1c(N)cccc1-c1cn2c(=O)c(Cc3ccco3)nc-2c(Cc2ccccc2)[nH]1 [JRW-1642, 6-(3-amino-2-methylphenyl)-8-benzyl-2-(furan-2-ylmethyl)imidazo[1,2-a]pyrazin-3(7H)-one]",0.04
3,"O=c1c(Cc2ccco2)nc2c(Cc3ccccc3)[nH]c(-c3cc(O)cc(F)c3)cn1-2 [JRW-1526, 8-benzyl-6-(3-fluoro-5-hydroxyphenyl)-2-(furan-2-ylmethyl)imidazo[1,2-a]pyrazin-3(7H)-one]",1.0
4,"O=c1c(Cc2ccco2)nc2c(Cc3ccccc3)[nH]c(-c3cc(O)ccc3F)cn1-2 [JRW-1405, 8-benzyl-6-(2-fluoro-5-hydroxyphenyl)-2-(furan-2-ylmethyl)imidazo[1,2-a]pyrazin-3(7H)-one]",1.0
5,"Nc1ccc(F)c(-c2cn3c(=O)c(Cc4ccco4)nc-3c(Cc3ccccc3)[nH]2)c1 [JRW-1411, 6-(5-amino-2-fluorophenyl)-8-benzyl-2-(furan-2-ylmethyl)imidazo[1,2-a]pyrazin-3(7H)-one]",0.001
6,"O=c1c(Cc2ccccc2)nc2c(Cc3ccccc3)[nH]c(-c3cccc(O)c3)cn1-2 [JRW-1043, 2,8-dibenzyl-6-(3-hydroxyphenyl)imidazo[1,2-a]pyrazin-3(7H)-one]",0.8
7,"O=c1c(Cc2cccs2)nc2c(Cc3ccccc3)[nH]c(-c3cccc(O)c3F)cn1-2 [JRW-1624, 8-benzyl-6-(2-fluoro-3-hydroxyphenyl)-2-(thiophen-2-ylmethyl)imidazo[1,2-a]pyrazin-3(7H)-one]",0.84
8,"O=c1c(Cc2ccco2)nc2c(Cc3ccccc3F)[nH]c(-c3cccc(O)c3F)cn1-2 [JRW-1668, 6-(2-fluoro-3-hydroxyphenyl)-8-(2-fluorobenzyl)-2-(furan-2-ylmethyl)imidazo[1,2-a]pyrazin-3(7H)-one]",1.5
9,"O=c1c(Cc2ccc3c(c2)OCO3)nc2c(Cc3ccccc3)[nH]c(-c3cccc(O)c3)cn1-2 [JRW-0777, 2-(benzo[d][1,3]dioxol-5-ylmethyl)-8-benzyl-6-(3-hydroxyphenyl)imidazo[1,2-a]pyrazin-3(7H)-one]",0.45
10,"O=c1c(Cc2ccco2)nc2c(Cc3ccccc3)[nH]c(-c3cccc(O)c3Cl)cn1-2 [JRW-1488, 8-benzyl-6-(2-chloro-3-hydroxyphenyl)-2-(furan-2-ylmethyl)imidazo[1,2-a]pyrazin-3(7H)-one]",0.31
11,"Nc1cccc(-c2cn3c(=O)c(Cc4ccc(C(F)(F)F)o4)nc-3c(Cc3ccccc3)[nH]2)c1F [JRW-1610, 6-(3-amino-2-fluorophenyl)-8-benzyl-2-((5-(trifluoromethyl)furan-2-yl)methyl)imidazo[1,2-a]pyrazin-3(7H)-one]",0.71
12,"COCc1cccc(Cc2nc3c(Cc4ccccc4)[nH]c(-c4cccc(O[Si](C)(C)C(C)(C)C)c4)cn-3c2=O)c1 [JRW-0372, 8-benzyl-6-(3-((tert-butyldimethylsilyl)oxy)phenyl)-2-(3-(methoxymethyl)benzyl)imidazo[1,2-a]pyrazin-3(7H)-one]",0.00033
13,"O=c1c(Cc2ccc(F)cc2)nc2c(Cc3ccccc3)[nH]c(-c3cccc(O)c3)cn1-2 [JRW-0786, 8-benzyl-2-(4-fluorobenzyl)-6-(3-hydroxyphenyl)imidazo[1,2-a]pyrazin-3(7H)-one]",0.88
14,"O=c1c(Cc2ccco2)nc2c(Cc3ccccc3)[nH]c(-c3cc(O)ccc3Cl)cn1-2 [JRW-1525, 8-benzyl-6-(2-chloro-5-hydroxyphenyl)-2-(furan-2-ylmethyl)imidazo[1,2-a]pyrazin-3(7H)-one]",0.4
15,"O=c1c(Cc2ccco2)nc2c(Cc3ccccc3)[nH]c(-c3ccc(Cl)c(O)c3)cn1-2 [JRW-1483, 8-benzyl-6-(4-chloro-3-hydroxyphenyl)-2-(furan-2-ylmethyl)imidazo[1,2-a]pyrazin-3(7H)-one]",0.008
16,"COc1ccc(Cc2nc3c(Cc4ccccc4)[nH]c(-c4cccc(O)c4)cn-3c2=O)cc1 [JRW-1052, 8-benzyl-6-(3-hydroxyphenyl)-2-(4-methoxybenzyl)imidazo[1,2-a]pyrazin-3(7H)-one]",0.4

row,Compound,RLU (@100 μM)
1,"O=c1c(Cc2ccco2)nc2c(Cc3ccccc3)[nH]c(-c3cccc([N+](=O)[O-])c3)cn1-2 [JRW-1424, 8-benzyl-2-(furan-2-ylmethyl)-6-(3-nitrophenyl)imidazo[1,2-a]pyrazin-3(7H)-one]",0.14
2,"O=c1c(Cc2ccco2)nc2c(Cc3ccccc3)[nH]c(-c3cc(O)cc(Cl)c3)cn1-2 [JRW-1479, 8-benzyl-6-(3-chloro-5-hydroxyphenyl)-2-(furan-2-ylmethyl)imidazo[1,2-a]pyrazin-3(7H)-one]",0.43
3,"O=c1c(Cc2ccc(C(F)(F)F)o2)nc2c(Cc3ccccc3)[nH]c(-c3cccc(O)c3F)cn1-2 [JRW-1619, 8-benzyl-6-(2-fluoro-3-hydroxyphenyl)-2-((5-(trifluoromethyl)furan-2-yl)methyl)imidazo[1,2-a]pyrazin-3(7H)-one]",0.85
4,"O=c1c(Cc2ccco2)nc2c(Cc3ccccc3)[nH]c(-c3cccc(O)c3F)cn1-2 [JRW-1404, 8-benzyl-6-(2-fluoro-3-hydroxyphenyl)-2-(furan-2-ylmethyl)imidazo[1,2-a]pyrazin-3(7H)-one]",1.2
5,"Nc1cccc(-c2cn3c(=O)c(Cc4ccco4)nc-3c(Cc3c(F)cccc3F)[nH]2)c1F [JRW-1747, 6-(3-amino-2-fluorophenyl)-8-(2,6-difluorobenzyl)-2-(furan-2-ylmethyl)imidazo[1,2-a]pyrazin-3(7H)-one]",2.1
6,"Cc1cccc(Cc2[nH]c(-c3cccc(O)c3F)cn3c(=O)c(Cc4ccco4)nc2-3)c1 [JRW-1370, 6-(2-fluoro-3-hydroxyphenyl)-2-(furan-2-ylmethyl)-8-(3-methylbenzyl)imidazo[1,2-a]pyrazin-3(7H)-one]",0.036
7,"Nc1cccc(-c2cn3c(=O)c(Cc4ccc(F)cc4)nc-3c(Cc3ccccc3)[nH]2)c1F [JRW-1635, 6-(3-amino-2-fluorophenyl)-8-benzyl-2-(4-fluorobenzyl)imidazo[1,2-a]pyrazin-3(7H)-one]",1.0
8,"Cc1cccc(Cc2[nH]c(-c3cccc(O)c3)cn3c(=O)c(Cc4ccco4)nc2-3)c1 [JRW-1368, 2-(furan-2-ylmethyl)-6-(3-hydroxyphenyl)-8-(3-methylbenzyl)imidazo[1,2-a]pyrazin-3(7H)-one]",0.032
9,"COCc1cccc(Cc2nc3c(Cc4ccccc4)[nH]c(-c4cccc(O)c4)cn-3c2=O)c1 [JRW-0373, 8-benzyl-6-(3-hydroxyphenyl)-2-(3-(methoxymethyl)benzyl)imidazo[1,2-a]pyrazin-3(7H)-one]",0.27
10,"Nc1cccc(-c2cn3c(=O)c(Cc4ccco4)nc-3c(Cc3ccccc3)[nH]2)c1F [JRW-1482, 6-(3-amino-2-fluorophenyl)-8-benzyl-2-(furan-2-ylmethyl)imidazo[1,2-a]pyrazin-3(7H)-one]",1.7
11,"Cc1ccc(Cc2nc3c(Cc4ccccc4)[nH]c(-c4cccc(O)c4)cn-3c2=O)o1 [JRW-1056, 8-benzyl-6-(3-hydroxyphenyl)-2-((5-methylfuran-2-yl)methyl)imidazo[1,2-a]pyrazin-3(7H)-one]",1.1
12,"Nc1cc(F)cc(-c2cn3c(=O)c(Cc4ccco4)nc-3c(Cc3ccccc3)[nH]2)c1 [JRW-1535, 6-(3-amino-5-fluorophenyl)-8-benzyl-2-(furan-2-ylmethyl)imidazo[1,2-a]pyrazin-3(7H)-one]",0.73
13,"Nc1cccc(-c2cn3c(=O)c(Cc4ccco4)nc-3c(Cc3ccccc3F)[nH]2)c1F [JRW-1667, 6-(3-amino-2-fluorophenyl)-8-(2-fluorobenzyl)-2-(furan-2-ylmethyl)imidazo[1,2-a]pyrazin-3(7H)-one]",2.1
14,"Cc1c(O)cccc1-c1cn2c(=O)c(Cc3ccco3)nc-2c(Cc2ccccc2)[nH]1 [JRW-1645, 8-benzyl-2-(furan-2-ylmethyl)-6-(3-hydroxy-2-methylphenyl)imidazo[1,2-a]pyrazin-3(7H)-one]",0.07
15,"O=c1c(Cc2ccco2)nc2c(Cc3ccc(F)cc3)[nH]c(-c3cccc(O)c3)cn1-2 [JRW-1498, 8-(4-fluorobenzyl)-2-(furan-2-ylmethyl)-6-(3-hydroxyphenyl)imidazo[1,2-a]pyrazin-3(7H)-one]",0.049
16,"COc1cccc(Cc2nc3c(Cc4ccccc4)[nH]c(-c4cccc(O)c4)cn-3c2=O)c1 [JRW-1047, 8-benzyl-6-(3-hydroxyphenyl)-2-(3-methoxybenzyl)imidazo[1,2-a]pyrazin-3(7H)-one]",0.5
